Measurements reported in the METLIN SMRT retention time set (Domingo-Almenara et al. 2019).

Experiment: gradient 5% acetonitrile 3 min, to 50% in 2 min, to 85% in 15 min, held 3 min, 100 µL/min
Conditions: column: Zorbax Extend-C18 2.1 x 50 mm; eluents: water / acetonitrile, 0.1% formic acid
In short: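 Standards, all pure, were combined into mixtures of ~100 molecules and run at 100 μL/min on a Zorbax Extend-C18 column (2.1 × 50 mm, 1.8 μm) with water and acetonitrile, each containing 0.1% formic acid. A coupled quadrupole time-of-flight mass spectrometer operated in positive and negative ionization mode. Retention time values come from computationally picked adduct peaks, each inspected manually.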

| Structure (SMILES) | RP-LC retention time [s] |
| --- | --- |
| COc1ccc(CNC(=O)Cn2ccc3ccc(-c4nnc(C)o4)cc32)cc1 | 1080 |
| Cc1c(F)cccc1NC(=O)N(C)CC1CCOCC1 | 742 |
| Cc1ccc(-c2csc(NC(=O)COc3ccc(C)cc3Br)n2)cc1 | 1290 |
| Cc1ccc(N2C(=O)N3CCc4c([nH]c5ccccc45)C3(C)C2=O)cc1 (stereo not given) | 1020 |
| O=C(NC1CC(=O)N(C2CC2)C1)c1ccc(Cl)s1 (stereo not given) | 639 |
| Cc1cn(C)c(CC(=O)NCCCN2CCCCCC2)c1C(=O)O | 593 |
| CCOC(=O)c1cnc2c(-c3ccc(Cl)cc3)c(CC)nn2c1N | 1280 |
| Cn1c(=O)c2c(ncn2CC(=O)N2CCC(C)(c3noc(C4CC4)n3)CC2)n(C)c1=O | 672 |
| COCCNc1c(-c2ccc(F)cc2)nc2sc(C(=O)NCc3ccncc3)c(C)n12 | 625 |
| Cc1ccc(Oc2cccc(C(=O)Nc3ccc(-c4csc(C)n4)cc3)c2)nn1 | 751 |
| O=C1c2ccccc2C(=O)c2sc(Nc3ccc(Cl)cc3)nc21 | 1030 |
| CCn1c(C2CCN(C(=O)c3ccc(Br)o3)C2)nc2cccnc21 (stereo not given) | 678 |
| COc1ccc(OC)c(Nc2c(-c3ccccn3)nc3cnccn23)c1 | 744 |
| Cc1noc(C)c1C1CCCN1C(=O)c1cccc(C#N)c1 (stereo not given) | 767 |
| N#Cc1cccc(NC(=O)Cn2cnc3nc4c(cc3c2=O)CCCC4)c1 | 700 |
| CC(C)Cn1c(=O)c(N2CCC(NC(=O)NCc3ccccc3)CC2)nc2ccccc21 | 980 |
| Cc1cc(=O)n(CC(=O)Nc2ccc(N(C)C)cc2)c(-c2ccccc2)n1 | 639 |
| CCOC(=O)C1CCN(C(=O)c2cn(-c3cc(N4CCSCC4)ncn3)cn2)CC1 | 791 |
| Cc1ccc2nc(NC(=O)Cc3csc4nc(-c5ccc(C)c(C)c5)cn34)sc2c1 | 953 |
| COC(=O)C1=C(C)NC(C)=C(C(=O)OC)C1c1cccc(NC(=O)NCCCN2CCC(c3cccc(OC)c3)CC2)c1 | 833 |
| Cc1cc(C)n2nc(SCC(=O)NCCC(C)C)nc2n1 | 690 |
| O=C(NCCOc1cc(N2CCCC2)ncn1)NCc1ccccc1 | 575 |
| CCOc1ccc(N2CC(C)Cn3c2nc2c3c(=O)n(C)c(=O)n2C)cc1 (stereo not given) | 831 |
| CC1CCN(c2ncc(S(=O)(=O)c3ccc(C(C)C)cc3)c(N)n2)CC1 | 1240 |
| COc1cc(NC(=O)CN2C(=O)C3CCCCN3c3ccc(C(=O)N(C)C)cc32)cc(OC)c1OC (stereo not given) | 734 |
| Cc1ccccc1-c1nnc(SCC(=O)N2CCC(C)CC2)o1 | 1020 |

| Structure (SMILES) | RP-LC retention time [s] |
| --- | --- |
| O=C(Cn1nc(N2CCOCC2)c2ccccc2c1=O)Nc1ccc(C(F)(F)F)cc1 | 898 |
| COc1ccc(-c2cc3c(=O)n(Cc4nc(-c5ccc(OC)cc5OC)oc4C)ccn3n2)cc1 | 1020 |
| COc1ccc(-c2nc(NC(=O)CS(=O)(=O)c3ccc(C)cc3)sc2C)cc1 | 1010 |
| Cc1nnc(-c2ccc3ccn(CC(=O)N4CCC5(CC4)OCCO5)c3c2)o1 | 673 |
| Cc1nc(N2CCOCC2)c2c(C(=O)Nc3ccc(F)cc3Cl)c(C)oc2n1 | 896 |
| O=C(CC(c1ccccc1)c1ccccc1)N(Cc1ccsc1)Cc1ccccn1 | 857 |
| CC(=O)N1CCC2(CC1)NC(=O)c1ccccc1O2 | 633 |
| COc1cccc(NC(=O)N2CCCC(Cn3cnc4cccnc43)C2)c1 (stereo not given) | 653 |
| COc1ccc(CCc2nc3nccc(-c4cc(OC)c(OC)c(OC)c4)n3n2)cc1 | 895 |
| Cc1ccc(NC(=O)Cn2nc(N(C)C)c3ccccc3c2=O)cc1F | 920 |
| Cc1cc(NC(=O)CN(C)c2nc3c(Cl)cccc3s2)no1 | 809 |
| C=CCNC(=O)c1cn(-c2cc(-c3nc(C(C)(C)C)no3)ccn2)cn1 | 879 |
| C=CCNC(=O)C1CCCN(S(=O)(=O)c2ccc(OC)c(OC)c2)C1 (stereo not given) | 700 |
| Cc1cc(C)cc(N2CCC(NC(=O)c3cccs3)C2=O)c1 (stereo not given) | 842 |
| O=C(NCC1CCN(C(=O)Oc2ccccc2)CC1)c1cnccn1 | 689 |
| CCOc1ccc(-c2[nH]nc3nc(-c4cccc(OC)c4)cc(C(=O)O)c23)cc1 | 821 |
| c1ccc(CCNc2nnc(-c3nc(C4CC4)no3)c3ccccc23)nc1 | 629 |
| CN1C(=O)c2cccn2CC1C(=O)NC1CCCC1 (stereo not given) | 634 |
| O=C(NC1CC1)c1ccc2ncnc(N3CCCCC3)c2c1 | 580 |
| CSCc1csc(NC(=O)C2CCCC2)n1 | 782 |
| CCCCSc1ncnc2[nH]ncc12 | 919 |
| CC(C)n1cnc2ccc(-c3noc(-c4cccc(F)c4)n3)cc21 | 810 |
| Cn1ccnc1C(=O)N1CC(n2cc(COc3ccc(F)cc3)nn2)C1 | 715 |
| COc1ccc(-c2ncc3c(=O)n(Cc4ccccc4Cl)c(=O)n(C)c3n2)cc1 | 1210 |
| CCCc1nnsc1C(=O)Nc1nnc(-c2cc3cccc(OC)c3o2)o1 | 1170 |

Second part, the compound after the results:

| RP-LC retention time [s] | Structure (SMILES) |
| --- | --- |
| 1110 | CCCn1cc(C(=O)NCCCOCC)c(S(=O)(=O)N2CCN(c3cccc(Cl)c3)CC2)n1 |
| 812 | COc1ccc(CNC(=O)N2CCN(Cc3nc4cc(-c5ccccc5)ccc4o3)CC2)cc1 |
| 968 | COc1ccc(-c2noc(C3CCCN3C(=O)c3cc(F)ccc3F)n2)cc1 (stereo not given) |
| 1310 | CCOC(=O)c1sc2ncnc(N3CCc4ccccc4C3)c2c1C |
| 755 | CCCn1c(=O)c2sc(N3CCCC3)nc2n(CC(=O)NCc2cccs2)c1=O |
| 882 | CCC(=O)N1CCc2c([nH]c3ccccc23)C12C(=O)Nc1ccc(Br)cc12 (stereo not given) |
| 715 | COc1ccc(CC(=O)N2CCc3c(c(CO)nn3CC3CC3)C2)cc1 |
| 753 | CCc1cc(-c2csc(S(=O)(=O)N3CCN(Cc4ccc5c(c4)OCO5)CC3)c2)on1 |
| 950 | Cc1ccc(NC(=O)CSc2nccc(N3CCN(c4cc(C)ccc4C)CC3)n2)cc1 |
| 738 | COCCn1c(=O)c2c(nc3n2CCCN3c2ccccc2)n(C)c1=O |
| 771 | CCc1cc(=O)n(CC(=O)Nc2cc(Cl)ccc2C)c(N2CCOCC2)n1 |
| 609 | CC(C)NC(=O)N1CCN(Cc2nc3cccnc3n2-c2cccc(F)c2)CC1 |
| 730 | O=S(=O)(c1ccccc1)N1CCC2(CC1)NCCN=C2NCc1ccc(F)c(Cl)c1 |
| 1230 | Cc1sc(-c2cc(C(F)(F)F)on2)cc1S(=O)(=O)NCC(C)c1ccccc1 (stereo not given) |
| 561 | CC(C)C(=O)Nc1ccc2nc(N3CCN(CC(=O)N4CCCC4)CC3)cc(C(=O)O)c2c1 |
| 616 | Cn1c(=O)c(N2CCN(C(=O)c3ccc(F)cc3Cl)CC2)nc2ccncc21 |
| 666 | Cc1nnc(C2CC3(CCN(CCc4ccccc4)CC3)CN2CCc2ccccc2)o1 (stereo not given) |
| 692 | O=S(=O)(c1cccnc1)N1CCN(c2ccc(-c3cccs3)nn2)CC1 |
| 702 | Fc1ccccc1-c1nc(-c2ccnc(N3CCCC3)c2)no1 |
| 778 | O=C(CN1CCN(Cc2ccccc2F)C1=O)N1CCN(c2ccccc2)CC1 |

| RP-LC retention time [s] | Structure (SMILES) |
| --- | --- |
| 665 | c1csc(-c2nc(-c3ccnc(N4CCCC4)c3)no2)c1 |
| 632 | CC(=O)Nc1ccc(S(=O)(=O)N2CCN(c3cc(C)c4ccccc4n3)CC2)cc1 |
| 669 | COc1ccc(NC(=O)Cn2c(N3CCOCC3)nc(C)cc2=O)c(OC)c1 |
| 1120 | COCCCn1c(=O)c2ccccc2n(Cc2nc(-c3ccc(Br)cc3)no2)c1=O |
| 766 | CCC(=O)N1CCCN(C2=NS(=O)(=O)C(c3ccc(C)c(C)c3)=C2C)CC1 |
| 822 | Clc1ccc(-c2nc(N3CCC4(CC3)OCCO4)c3ccccc3n2)cc1 |
| 856 | Cc1noc(C)c1S(=O)(=O)N1CCC(c2nn(C)c(=O)n2C2CCCC2)CC1 |
| 640 | Cc1ccc2oc(C(=O)NCCc3cccs3)cc2n1 |
| 932 | O=C(Cn1c(=O)cc(-c2nc(C3CC3)no2)c2ccccc21)NC1CCCCC1 |
| 900 | COc1ccc(-c2noc(C3CCCN3C(=O)c3cc(F)ccc3F)n2)cc1OC (stereo not given) |
| 843 | CCCCOc1ccc(CNC(=O)c2ccc3c(c2)N(C)C(=O)C2CCCCN32)cc1 (stereo not given) |
| 1030 | Cc1nc2cc(-c3noc(Cc4ccccc4Cl)n3)ccc2o1 |
| 585 | COc1ccc(NC(=O)C2CCN(c3cncnc3N3CCN(C)CC3)CC2)cc1Cl |
| 1290 | CCCN1C(=O)COc2ccc(-c3noc(-c4ccccc4C)n3)cc21 |
| 672 | O=C(NCCc1cccs1)C1CCN(c2cc(N3CCCCC3)ncn2)CC1 |
| 803 | Cc1nc(-c2noc(-c3ccccc3)n2)cn1CC(=O)Nc1ccc2c(c1)OCO2 |
| 581 | CCN1CCN(C(=O)CN2C(=O)c3ccccc3Sc3ncccc32)CC1 |
| 865 | O=C(Cc1ccsc1)N1CCC2(CC1)N=C(c1ccc(Cl)cc1)NO2 |
| 1000 | CCOc1ccc(-n2c(=O)c3sccc3n(Cc3nc(-c4cccc(OC)c4)no3)c2=O)cc1 |
